The text below walks through data of PubChem BioAssay (NCI).

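Method: 48-hour compound exposure of cells in 96-well plates, five concentrations, linear interpolation of endpoints. Abbreviation: GI50, concentration required for 50% inhibition of growth. TGI: total growth inhibition.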 Bounds are passed on as bounds.

Among the test systems are HCT-15 colon; MCF7 breast; MOLT-4 leukemia; OVCAR-8 ovarian; RXF 393 renal; SF-295 CNS; SK-MEL-28 melanoma; UACC-257 melanoma; UACC-62 melanoma; SNB-75 CNS.
What all share (assay): growth of human tumour cells (NCI), 48 h

Turning to `CC(C)CCN=C(N)c1ccc(N2CCN(c3ccc(C(N)=NCCC(C)C)cc3)CC2)cc1`, the GI50 in the assay on HCT-15 colon was 37.6 µM; with MCF7 breast, 16.2 µM; in the assay with MOLT-4 leukemia, 14.6 µM; in the assay with OVCAR-8 ovarian, 6.57 µM; in the assay with RXF 393 renal it was 7.89 µM; in the assay with SF-295 CNS it was 6.68 µM. Further, the GI50 with SK-MEL-28 melanoma was 5.89 µM; in the assay on UACC-257 melanoma it was 12.9 µM; with UACC-62 melanoma, 16.8 µM. Besides, the TGI in the assay with HCT-15 colon was greater than 100 µM; with MCF7 breast, 33.8 µM; in the assay with MOLT-4 leukemia it was 53.6 µM; with OVCAR-8 ovarian, greater than 100 µM; with RXF 393 renal, 44.9 µM; in the assay on SF-295 CNS it was 38.5 µM. Further, the TGI turned out to be 24.3 µM in the assay with SK-MEL-28 melanoma, 82.3 µM with UACC-257 melanoma and 33.8 µM in the assay with UACC-62 melanoma.

Take `O=[N+]([O-])c1c(Br)sc(Br)c1[N+](=O)[O-]`: the GI50 was 1.59 µM in the assay on HCT-15 colon; 2.2 µM in the assay on MCF7 breast; 1.01 µM in the assay with MOLT-4 leukemia; 2.39 µM with OVCAR-8 ovarian; 1.47 µM in the assay on RXF 393 renal; 14.2 µM in the assay with SF-295 CNS. Besides, the GI50 in the assay on SK-MEL-28 melanoma was 2.01 µM; with SNB-75 CNS, 1.88 µM; in the assay with UACC-257 melanoma it was 1.52 µM; with UACC-62 melanoma, 1.87 µM. Further, the TGI was 4.48 µM in the assay with HCT-15 colon; 7.65 µM with MCF7 breast; 5.35 µM with MOLT-4 leukemia; 7.08 µM in the assay with OVCAR-8 ovarian; 2.85 µM with RXF 393 renal; 28.6 µM in the assay on SF-295 CNS. The TGI in the assay on SK-MEL-28 melanoma was determined as 4.54 µM; with SNB-75 CNS, 4.99 µM; in the assay with UACC-257 melanoma it was 3.04 µM; in the assay with UACC-62 melanoma, 4.68 µM.

Consider `Nc1nc(-c2ccc(F)cc2)c(-c2ccc3ncccc3n2)s1`, for which the GI50 with HCT-15 colon is 14.1 µM; in the assay on MCF7 breast, 9 µM; in the assay on MOLT-4 leukemia, 17.4 µM; with OVCAR-8 ovarian, 15.6 µM; in the assay on RXF 393 renal it was 12.3 µM; with SF-295 CNS, greater than 21 µM. The GI50 in the assay with SK-MEL-28 melanoma is greater than 25 µM; in the assay with SNB-75 CNS it was 5.04 µM; in the assay on UACC-257 melanoma, greater than 25 µM; in the assay with UACC-62 melanoma, greater than 23.2 µM. The TGI with HCT-15 colon, in the assay on MCF7 breast, with MOLT-4 leukemia, in the assay on OVCAR-8 ovarian, with RXF 393 renal and in the assay with SF-295 CNS was greater than 25 µM each time. The TGI in the assay with SK-MEL-28 melanoma, in the assay with SNB-75 CNS, in the assay with UACC-257 melanoma and with UACC-62 melanoma was greater than 25 µM throughout.

For `Fc1ccc(Nc2nc3nonc3nc2Nc2ccc(F)cc2)cc1`, the GI50 in the assay on HCT-15 colon was 0.384 µM; in the assay with MCF7 breast, 0.567 µM; with MOLT-4 leukemia it was 0.356 µM; in the assay on OVCAR-8 ovarian, 0.402 µM; in the assay with SF-295 CNS, 0.271 µM; in the assay on SK-MEL-28 melanoma, 0.505 µM. The figures for the GI50 in the assay with SNB-75 CNS, in the assay with UACC-257 melanoma and in the assay with UACC-62 melanoma were 0.399 µM, 0.401 µM and 0.283 µM, respectively. Further, the TGI was found to be 11.7 µM in the assay on HCT-15 colon; 11.2 µM with MCF7 breast; 1.65 µM with MOLT-4 leukemia; 15.4 µM in the assay with OVCAR-8 ovarian; 1.26 µM in the assay with SF-295 CNS; 11 µM in the assay with SK-MEL-28 melanoma. Also, the TGI with SNB-75 CNS stood at 3.38 µM; in the assay with UACC-257 melanoma, 3.16 µM; with UACC-62 melanoma it was 3.22 µM.

With `CCC1CCc2nc3sc(C(=O)Nc4cccc(F)c4)c(N)c3cc2C1` (stereo not drawn), the GI50 was 0.428 µM in the assay with HCT-15 colon; 0.313 µM in the assay with MCF7 breast; 39.8 µM in the assay with MOLT-4 leukemia; greater than 100 µM in the assay with OVCAR-8 ovarian; 0.901 µM in the assay with SF-295 CNS; greater than 100 µM in the assay on SK-MEL-28 melanoma. In addition, the GI50 is 9.19 µM with SNB-75 CNS, greater than 100 µM in the assay on UACC-257 melanoma and 0.376 µM in the assay with UACC-62 melanoma. Besides, the TGI in the assay with HCT-15 colon, with MCF7 breast, in the assay on MOLT-4 leukemia, in the assay on OVCAR-8 ovarian, in the assay with SF-295 CNS and with SK-MEL-28 melanoma was greater than 100 µM in each case. Further, the TGI in the assay on SNB-75 CNS, in the assay on UACC-257 melanoma and in the assay on UACC-62 melanoma was greater than 100 µM throughout.

`Cc1cccc2c(=O)c3c(sc12)c(NCCNCCO)nc1ccccc13`: the GI50 in the assay on HCT-15 colon is 1.46 µM; in the assay with MCF7 breast, 1.24 µM; with MOLT-4 leukemia it was 1.53 µM; in the assay on RXF 393 renal it was 1.43 µM; in the assay with SF-295 CNS, 1.73 µM; in the assay with SK-MEL-28 melanoma, 1.79 µM. Moreover, the GI50 was 1.15 µM in the assay with SNB-75 CNS, 1.86 µM in the assay on UACC-257 melanoma and 1.63 µM in the assay with UACC-62 melanoma. Moreover, the TGI in the assay on HCT-15 colon came to 2.89 µM; in the assay on MCF7 breast, 2.72 µM; in the assay on MOLT-4 leukemia, 3.21 µM; in the assay on RXF 393 renal it was 2.77 µM; in the assay with SF-295 CNS, 3.21 µM; in the assay on SK-MEL-28 melanoma, 3.31 µM. Further, the values for the TGI with SNB-75 CNS, in the assay with UACC-257 melanoma and in the assay on UACC-62 melanoma were 2.43 µM, 3.79 µM and 3.07 µM, respectively.

On to `COc1ccc(Nc2c3ccccc3nc3ccccc23)cc1`, for which the GI50 in the assay on HCT-15 colon is 1.08 µM; in the assay with MCF7 breast it was 0.409 µM; in the assay with MOLT-4 leukemia, 0.59 µM; with OVCAR-8 ovarian, 1.89 µM; with RXF 393 renal, 2.04 µM; with SF-295 CNS, 0.904 µM. Moreover, the values for the GI50 in the assay with SK-MEL-28 melanoma, with SNB-75 CNS and in the assay with UACC-257 melanoma were 2.17 µM, 2.85 µM and 2.71 µM, respectively. Also, the TGI with HCT-15 colon was 15.5 µM; with MCF7 breast it was 13 µM; in the assay with MOLT-4 leukemia, 3.39 µM; in the assay with OVCAR-8 ovarian it was 16.7 µM; with RXF 393 renal it was 12.1 µM; with SF-295 CNS it was 10.4 µM. Besides, the TGI with SK-MEL-28 melanoma is 15.3 µM; in the assay on SNB-75 CNS it was 17.6 µM; in the assay with UACC-257 melanoma, 14.4 µM.

On to `Cc1c(COc2cc(OCc3cccc(C#N)c3)c(CN3C[C@H](O)C[C@@H]3C(=O)O)cc2Cl)cccc1-c1ccc2c(c1)OCCO2`, for which the GI50 with HCT-15 colon is 13.7 µM; in the assay on MCF7 breast, 4.66 µM; in the assay on OVCAR-8 ovarian, 27.1 µM; in the assay with RXF 393 renal, 16 µM; in the assay with SF-295 CNS it was 10.7 µM; with SK-MEL-28 melanoma, 13.3 µM. Further, the GI50 in the assay with SNB-75 CNS is 13.6 µM; with UACC-257 melanoma, 20.6 µM; with UACC-62 melanoma, 17 µM. In addition, the TGI in the assay on HCT-15 colon was 26.7 µM; in the assay with MCF7 breast, 19.3 µM; in the assay with OVCAR-8 ovarian it was greater than 100 µM; in the assay on RXF 393 renal it was 29.9 µM; with SF-295 CNS, 22.6 µM; in the assay with SK-MEL-28 melanoma, 26.1 µM. Further, the figures for the TGI in the assay on SNB-75 CNS, with UACC-257 melanoma and in the assay on UACC-62 melanoma were 27 µM, 41.8 µM and 32.3 µM, respectively.
